Test system: NIH3T3
Assay: Cell viability under paraquat oxidative stress
Assay type: cell-based, mouse
Experimental: Cells: NIH3T3 mouse fibroblasts and the N2a neuroblastoma cell line were obtained from the American Type Culture Collection and were validated by genomic PCR. Primary human fibroblasts (GM01651) were from Coriell Repository. All the cells lines were tested for mycoplasma contamination using DNA staining protocol with Hoechst 33258 dye. Knock-down of NCoR1 was done using lentiviral mediated shRNA (SHCLNG-NM_011308) from the Sigma Mission library following standard procedures. Efficiency of knock-down was tested by immunoblot. Cell viability was measured using the CellTiter-Blue kit (Promega) 24 h after the addition of the different stressors according to manufacturer's instructions.

In the case of `Clc1ccc2c(c1)OCC(c1ccc(-c3ccccc3)cc1)=N2` [CA39], the protection against paraquat (compound added after the insult, compared with AR7) is reported as “significantly higher protection than AR7” and the “cell death under paraquat” value (compound administered before the insult) is reported as “reduced cell death”.
